Measured values taken from US6627601B2, “Neuroprotective peptides and uses thereof” (Protarga, Inc., priority 1998, dated 2003).
Like-named read-outs stand apart in the source and are kept apart here.

Tests used:
[1] = fura-2 calcium chelation assay in cells loaded with fura-2 and calcium; assay type: cell-based
Description: Any of the foregoing peptides can be tested for calcium binding by well known assays of calcium chelation (see, e.g. Cornell-Bell et al., Science 247:470-473, 1990; Cornell-Bell et al., Cell Calcium 12:185-204, 1991). For example, one preferred method employs the calcium sensitive dye fura-2 to measure the chelation of calcium by the isolated peptides. In such an assay, cells are loaded with fura-2 and calcium. […] An isolated peptide then is added to the cells and the diminution of fura-2 fluorescence is determined. Dose response experiments can be performed to determine the concentration at which the isolated peptide completely eliminates fura-2 fluorescence. For example, the isolated peptide of SEQ ID NO:4 completely eliminates fura-2 fluorescence at a concentration of 1 pg/ml in the cell culture medium.
Peptides, including variant peptides, can be tested for retention for any of the foregoing properties. For example, the peptides can be tested for in vitro properties initially to determine which of the variant peptides retain the ability to bind calcium ions and/or stimulate the expression of transcription factors. In vitro assays of calcium binding include contacting the peptide with an environment which contains calcium, such as a cell preloaded with calcium and a fluorescent calcium-sensitive dye, and determining the calcium binding of the peptide Peptides which retain one or more of these properties can then be used in in vivo assays of neuroprotection such as the Mongolian gerbil assay described below. Neuroprotective peptides or their variants which are conjugated to targeting compounds, labels, blood-brain barrier carriers and the like can be tested for retention of neuroprotective activity as well as for the activity of the conjugated compound (e.g., appropriate targeting, detectable labeling, ability to cross the blood-brain barrier, etc.).

[2] = test system: gerbil model for ischemic stroke (5 minute bilateral carotid occlusion); experiment: general locomotor activity (GLA) of gerbils after forebrain ischemia; assay type: in vivo, male Mongolian gerbil
From the text: The gerbil (male Mongolian) has been widely used as an experimental model for studies of ischemic stroke because the brain blood supply is controlled by only two common carotid arteries. This unusual feature occurs in gerbils because they have an incomplete circle of Willis (Chandler et al., J. Pharmacol. Methods 14:137-146, 1985; Finkelstein et al., Restor. Neurol. Neurosci. 1:387-394, 1990; Levine and Sohn, Arch. Pathol. 87:315-317, 1969; Kahn, Neurology 22:510-515, 1972). A five minute bilateral carotid occlusion results in neuronal cell death that is predominantly localized in the CA1 subfield of the hippocampus. The CA1 neurons degenerate and virtually disappear by 7-8 days after ischemia (Akira, Res. in Immunol. 143:734-736 1992; Crain et al., Neurosci. 27:387-402, 1988). In addition, the gerbil model has the advantage that within one day after ischemia the animals increase by 100% to 200% their general locomotor activity. This readily measurable change can persist for at least eight days in most of the experimental animals (Akira, 1992; Kuroiwa et al., Neurosci. Lett. 122:141-144, 1991; Ohno et al., Eur. J Pharmacol. 193:357-361, 1991; Phillis, Brain Res. Bull. 23:467-470, 1989).
Male Mongolian gerbils were anesthetized with a mixture of isoflurane and oxygen using an inhalation apparatus (Stoelting Instrument Co.). An incision was made in the ventral neck and the common carotid arteries were isolated and occluded completely for a period of 5 minutes using microaneurysm clips. Next, the clips were removed and the incision sutured. The anesthesia was continued until the end of the i.v. injection and infusion period. Mean arterial blood pressure was monitored by a polyethylene catheter implanted in the left or right femoral […] during surgery. […]
GLA measurements were carried out in half hour sessions using the Stoelting Electronic Activity monitor (Shashoua et al., J. Med. Chem. 27:654-659, 1984; Jacob et al., J. Med. Chem. 30:1573-1576, 1987). Each gerbil's activity level was first assessed on days 3 and 1 prior to the experimental ischemia procedure to obtain a base line GLA data, then on days 1, 2, 5, and 7 after the carotid artery occlusion to determine efficacy of drug treatment. […]
Male Mongolian gerbils were anesthetized with a mixture of halothane and oxygen in Phase 1 of surgery and a cannula (an Alzet No. 2002 pump) was implanted subcutaneously in the midscapular region beneath the skin of the animal. […] All surgical procedures were carried out with a strict control of the temperature of each animal; rectal temperatures were monitored and heat was supplied via a temperature regulated heating pad. […]

[3] = test system: CA1 and CA3 hippocampal neurons; experiment: histological cell density/survival of hippocampal neurons in gerbil brains after forebrain ischemia; assay type: in vivo, male Mongolian gerbil
Description: At the time of the sacrifice, each animal was deeply anesthetized and perfused transcardially with heparinized saline followed by paraformaldehyde (4%) in phosphate buffered saline. After fixation the brains were placed in 30% sucrose for 3 days, embedded in glutaraldehyde-gelatin, cut frozen into 30μ serial sections for morphometric analysis, and stained with cresyl violet. The cell densities per 1000 microns2 were determined by computer assisted counting of grey level images at 300× viewed through an Axioplan microscope. It was determined that a maximum of 62% of the hippocampal pyramidal cells survived the ischemia in the presence of NMI 9236 as compared to 4% survival for the control saline non-drug treated animals. All analyses were carried out blind.
At 8 days post surgery the gerbils were sacrificed, perfusion fixed with formalin, and each perfused brain was embedded in glutaraldehyde-gelatin. About 300 serial sections (40 microns thick) were cut from each frozen brain, and stained with cresyl violet. Cell morphometric analysis was carried out on one out of every 10 sections by computer-assisted cell density counting of grey level images viewed at 300× through an Axioplan microscope. Focused camera input (Sony CCD) from the microscope to the IBS video screen of the Zeiss IBAS/KONTRON Image analysis system was normalized and segmented before assessing cell number. The average cell density present per a 1000 micron^2 region of the CA1 and CA3 pyramidal cell layers for the left and right side of each were determined. The analysis was carried out blind.

[4] = test system: AP-1 transcription factor; experiment: EMSA of AP-1 in nuclear extracts of neuroblastoma cultures; assay type: cell-based, mouse
Description: (§1) It was determined that NMI 9236 can turn on specific genes related to neuronal growth in neuroblastoma tissue culture experiments.
(§2) The activation of specific transcription factors was assayed using an electrophoretic mobility shift assay (EMSA, for review see: Kerr, Meth. Enzymol 254:619-632, 1995). Nuclear extracts were prepared from stimulated neuroblastoma cell cultures (10^7 cells/sample) using classical nuclear extraction protocols (Dignam et al., Nucl. Acids Res. 11: 1475-1489, 1983; Prywes and Roeder, Cell 47: 777-784, 1986). A 0.5 pmol aliquot of a synthetic ^32P labeled oligomer duplex (with a sequence known to bind a specific transcription factor, see Table 2) was mixed with 3 μg of nuclear extract protein, and the mixture incubated at room temperature for 20 minutes. Subsequent electrophoresis under non-denaturing conditions through 4% polyacrylamide gels were used to separate and resolve the high MW protein/DNA complexes (transcription factor/DNA oligomer duplex) form low MW uncomplexed DNA oligomers. Autoradiography was used to visualize and quantify the complexes formed (see FIG. 6).
Using the electrophoretic mobility shift assay (EMSA) we tested for changes in concentration of transcription factors AP-1 and NF-IL6 in neuroblastoma nuclei as a function of stimulation by peptide NMI-9236. These two factors are well known to function in cell proliferation and differentiation, and to be activated by protein kinase-C. […] Identification of the two observed bands as Jun/Fos heterodimers and Jun/Jun homodimers was based on their electrophoretic migration, as well as antibody studies (data not shown).

[5] = test system: NF-IL6 transcription factor; experiment: EMSA of NF-IL6 in nuclear extracts of neuroblastoma cultures; assay type: cell-based, mouse
Description: as §1, §2
Identification of the observed band as NF-IL6 ([…]) was based on its electrophoretic migration, as well as antibody studies (data not shown).

[6] = test system: rat brain hippocampal cells; experiment: glutamate induced neurotoxicity in hippocampal neuron cultures; assay type: cell-based; conditions: 3 days of culture
Description: The effect of the neuroprotective peptides was tested on rat brain hippocampal cells. Rat brain hippocampi were isolated by dissection of 18 day old rat fetuses. […] The cultures were then incubated for 30 min at 37° C. after which glutamate was added at the concentrations indicated. Cells were counted after 3 days of culture; healthy cells and total cells were counted.

neurons = conditions: compared with 68 kilodalton parent protein; Shashoua et al., 1992; cited from earlier work
[7] = 1 mg/kg i.v. @ 1 hr post ischemia, day 8, n=3
[8] = NB2a mouse neuroblastoma cultures, 5-50 μg/ml
[9] = neuroblastoma cells treated for 20 hours
[10] = 2 mM glutamate + 12 μg/ml peptide
[11] = 2 mM glutamate + 18 μg/ml peptide

Q: With “K-K-D-G-D-G-D-F-A-I-D-A-P-E (KKDGDGDFAIDAPE) [NMI 9236, 14 amino acid peptide]” as the compound, how does the “concentration at which the peptide completely eliminates fura-2 fluorescence” value ([1]; in the cell culture medium) read?
A: 1 pg/mL

Q: What about the “average GLA, % of the day 1 data” value ([2]; 1 mg/kg i.v. (femoral vein) at 1 hour after occlusion, saline control 225%) of the same compound?
A: 85%

Q: What about the “effect on GLA (in words)” value ([2]; i.v. injection at 10 minutes after the ischemic event, n=3) of the same compound?
A: blocked the development of enhanced GLA

Q: What about the “GLA, % of own GLA one day prior to surgery” value ([2]; icv delivery by Alzet pump, 1 milligram per ml, 7 days pre- and 7 days post-ischemia, n=4) of the same compound?
A: 80%

Q: And the GLA value ([2]; subcutaneous (s.c.) injection at 1 hour after the surgery)?
A: 200%

Q: And the “Cell Density CA1-Hippocampal field” value [3, 7]?
A: 13.3 ± 0.82 number of cells/1000 microns^2

Q: And the “Cell Density CA3-Hippocampal field” value [3, 7]?
A: 8.82 ± 0.42 number of cells/1000 microns^2

Q: What about the “neuronal loss in CA1/CA3 versus sham operated controls (in words)” value ([3]; 1 mg/kg i.v. bolus at 1 hr post ischemia) of the same compound?
A: essentially all the cells remained intact

Q: What about the “survival of L-CA1 neurons” value ([3]; icv into left lateral ventricle, 8 days post-ischemia, left side) of the same compound?
A: 52±12%

Q: What about the “survival of R-CA1 neurons” value ([3]; icv into left lateral ventricle, 8 days post-ischemia, right (unprotected) side) of the same compound?
A: 4±2%

Q: What about the “L-CA1 cell density as % of level of sham operated control brain” value ([3]; icv, 8 days post surgery) of the same compound?
A: about 50%

Q: And the “L-CA1 cell density count” value ([3]; icv, 8 days post surgery, saline controls 0.6)?
A: 6.2 per 1000 micron^2

Q: What about the R-CA1 cell density ([3]; icv, 8 days post surgery, stated comparable to saline controls) of the same compound?
A: ~0.6 per 1000 micron^2

Q: What about the “maximum survival of hippocampal pyramidal cells after ischemia” value ([3]; in the presence of NMI 9236, 4% for control saline animals) of the same compound?
A: ≤ 62%

Q: What about the “AP-1 activation, densitometric scans of the EMSA” value [4] of the same compound?
A: 3-5 fold

Q: What about the “activation of AP-1 relative to control” value ([4]; 30 min) of the same compound?
A: less pronounced

Q: What about the “level of AP-1 in the nuclei of the cells” value [4, 8] of the same compound?
A: increase

Q: What about the “activation of AP-1 relative to control” value [4, 9] of the same compound?
A: strong activation

Q: And the “activation of AP-1 relative to control” value ([4]; serum-free medium, 20 hours)?
A: very strong activation

Q: And the “NF-IL6 activation, densitometric scan of the EMSA” value ([5]; 1 μg/ml, in comparison to control)?
A: 3-5 fold

Q: What about the “activation of NF-IL6 relative to control” value ([5]; 30 min) of the same compound?
A: less pronounced

Q: And the “level of NF-IL6 in the nuclei of the cells” value [5, 8]?
A: increase

Q: What about the “activation of NF-IL6 relative to control” value [5, 9] of the same compound?
A: strong activation

Q: And the “activation of NF-IL6 relative to control” value ([5]; serum-free medium, 20 hours)?
A: very strong activation

Q: And the “% healthy” value [6, 10]?
A: 92%

Q: And the Healthy cells [6, 10]?
A: 138

Q: What about the Total cells [6, 10] of the same compound?
A: 150

Q: And the “% healthy” value [6, 11]?
A: 81.6%

Q: And the Healthy cells [6, 11]?
A: 80

Q: And the Total cells [6, 11]?
A: 98

Q: What about the “promotion of growth and sprouting of neurons” value (neurons) of the same compound?
A: at least the same extent as its 68 kilodalton parent protein

Q: Which “calcium chelation (in words)” value [1] does the source give for “D-F-A-I-D-A-P-E (DFAIDAPE) [SEQ ID NO:10]” here?
A: chelate calcium as tightly as the peptide of SEQ ID NO:3

Q: And the “calcium chelation effectiveness relative to peptide of SEQ ID NO:4” value ([1]; fura-2 fluorescence)?
A: about half as effective as the peptide of SEQ ID NO:4

Q: And the “calcium chelation (in words)” value ([1]; listed as SEQ ID NO: 10)?
A: chelates calcium

Q: With `N[C@@H](CCC(=O)O)C(=O)O` [glutamate, reference compound] as the compound, how does the “% healthy” value ([6]; 1 mM glutamate alone) read?
A: 51.5%

Q: What about the Healthy cells ([6]; 1 mM glutamate alone) of the same compound?
A: 35

Q: What about the Total cells ([6]; 1 mM glutamate alone) of the same compound?
A: 68

Q: And the “% healthy” value ([6]; 2 mM glutamate alone)?
A: 40.8%

Q: And the Healthy cells ([6]; 2 mM glutamate alone)?
A: 62

Q: What about the Total cells ([6]; 2 mM glutamate alone) of the same compound?
A: 156
